Assay results published in US9371295B2, “Compounds for use in the treatment of disorders that are ameliorated by inhibition of HDAC” (IRBM—Science Park S.p.A., priority 2012, dated 2016).

Legend:
[1] = system: human γ-globin promoter (EGFP reporter) in K562 cells; assay: HbF activation assay on K562 (EGFP/RFP reporter model system for screening of inducers of fetal hemoglobin); assay type: cell-based; settings: 60 hours
Source text: In order to test several compounds, a model system was produced based on previous findings present in the literature. The K562 erythroid-like cell lines, isolated and characterized by Lozzio & Lozzio (Blood, 45(3), pp 321-334) from a patient with chronic myelogenous leukemia in blast crisis, have been extensively employed as a useful in vitro model to study the molecular mechanism(s) regulating the expression of embryonic and fetal human globin genes, as well as for screening of new differentiation-inducing compounds. A stable cell line where reporter genes encoding green EGFP and far-red fluorescent protein red-FP are placed under the control of the human γ-globin or β-globin promoters respectively was used (see Vadolas et al, Hum. Mol. Genet. 2004, 13, 2, 223-233 for details). The modified 3-cluster also contains the upstream regulatory region called LCR. This cell line grows in suspension at 37° C. and 5% CO2 in humidified atmosphere in the following medium: DMEM, 10% foetal bovine serum, glutamine and antibiotics (penicillin and streptomycin);
The assay procedures is as follows: • Single concentration compounds or serially diluted samples are transferred to an empty assay plates by a spotter (ATS-100, EDC Biosystems, USA) in order to have a final concentration of DMSO of 0.25% in 50 μL of cell culture. Source plats contains compounds dissolved in 100% DMSO • Black, transparent bottom, 384 wells, tissue culture treated plates are used as assay plates. • Assay plates containing spotted compounds are filled with a suspension of cell in the described assay medium. The final cell concentration is of 1000 cells per well. • Cells are incubated in humidified atmosphere, 37° C.-5% CO2, for 60 hours • Cell nuclei are stained by adding 10 ul (6 μM; 1 μM final) Hoechst 33342 (Life Technologies, USA) • The cell associated intensity is read by a plate based cytometer (ACUMEN explorer, TTP Labtech, UK) • The nuclei count is used to assess the cell proliferation/death and to normalize the total EGFP/RFP intensity. HbF Activation Assay in Human Cell Line K562
The compounds of the invention were tested in the HbF activation assay on K562, as model system for screening of potential inducers of fetal hemoglobin.

HDAC1 = target: T1, HDAC1 (Homo sapiens, UniProt Q13547); assay: HDAC1 assay (Fluor-de-Lys fluorescent deacetylase assay); assay type: biochemical; settings: read-out: hHDAC IC50
T1 construct: made in house
Protocol: The HDAC1 assay is used to quantify the histone deacetylase (HDAC) activity. The assay is performed in 384 well microtiter plates by pre-incubating serial dilutions of the compounds with a fixed concentration of HeLa nuclear extract or purified HDAC1 and then adding an acetylated lysine-containing substrate/developer that fluoresces upon deacetylation.
Reagents of the HDAC Fluorescent Activity Assay are purchased from BioMol Research Laboratories (Plymouth Meeting, Pa.) and feature the Fluor-de-Lys™ Substrate/Developer System.
TSA Stock: TSA is provided as a 10 mM stock solution in 100% dimethylsulfoxide (DMSO). […] The final concentration in the assay is 20 uM.
3 uM [final] TSA to this solution increases its ability to stop the reaction.
HDAC1 Working Solution: The HDAC1 enzyme is diluted in assay buffer prior to each use from a fresh aliquot of enzyme. The final concentration in the assay is 1-2 nM.
Compounds: Test compounds are directly transferred from a 100% DMSO solution into assay plates by spotting nanoliters of solutions by an acoustic dispenser (ATS-100, EDC biosystems, US).
HeLa cells transiently transfected with pCDNA3-HDAC1-FLAG are grown to 80% confluence on 10 cm culture dishes in DMEM, 10% Fetal bovine serum supplemented with antibiotics and glutamine. Cells are washed with 10 ml cold PBS and scraped into 2 ml of PBS. Cells are centrifuged for 5 minutes at 800×g at 4° C., washed with 30 ml PBS and resuspended in 10 ml PBS, counted, re-centrifuged and frozen at −80° C.
The frozen cell pellet is re-suspended in 1 ml of hypotonic lysis buffer (LB: 20 mM Hepes pH7.9, 0.25 mM EDTA, 10% glycerol) containing COMPLETE protease inhibitor and incubated on ice for 15 minutes, followed by homogenization on a 2-ml DounceB homogenizer (25 strokes). 150 mM KCl and 0.5% NP-40 are added to the homogenate and the solution is sonicated twice for 30 seconds (output5/6, duty cycle 90) and incubated for 1 hour at 4° C. After a 30 minutes centrifugation at 12000 rpm and 4° C. the supernatant (soluble extract) is collected and protein concentration is determined using the BIORAD assay.
Anti-FLAG M2 affinity resin (Sigma) is washed three times with TBS and twice with LB. 10 μl of the LB-washed resin/mg of protein (2-3 ug of Flagged-HDAC1) are added to the soluble extract (1 mL) and incubated overnight at 4° C. with gentle mixing. The resin is then collected by centrifugation, washed once with LB, twice with LB+0.1% NP40 and twice with elution buffer (50 mM Hepes pH 7.4, 5% glycerol, 100 mM KCl, 0.01% Triton X-100).
The concentration of purified HDAC is determined by Western blot analysis.

HDAC in Hela cells = assay: HDAC Hela Cell Based assay

T1 sequence (Q13547 whole entry): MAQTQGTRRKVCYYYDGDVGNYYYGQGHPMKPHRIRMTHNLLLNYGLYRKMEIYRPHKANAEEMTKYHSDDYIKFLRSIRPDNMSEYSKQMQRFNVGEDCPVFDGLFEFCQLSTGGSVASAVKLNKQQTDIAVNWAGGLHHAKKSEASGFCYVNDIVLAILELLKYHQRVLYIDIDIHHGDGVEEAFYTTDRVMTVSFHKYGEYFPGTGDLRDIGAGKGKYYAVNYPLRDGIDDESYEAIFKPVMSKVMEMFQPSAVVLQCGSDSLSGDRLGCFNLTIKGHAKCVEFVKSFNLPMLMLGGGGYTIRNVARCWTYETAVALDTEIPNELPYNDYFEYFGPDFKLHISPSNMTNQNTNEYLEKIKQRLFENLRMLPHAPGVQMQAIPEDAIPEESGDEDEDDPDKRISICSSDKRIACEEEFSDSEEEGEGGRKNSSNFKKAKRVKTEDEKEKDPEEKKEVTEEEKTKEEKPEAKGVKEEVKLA

Row | EC50 [1] [nM] | IC50 (HDAC1) [nM] | IC50 (HDAC in Hela cells) [nM] | Compound
1 | > 1000 | < 100 | 100 to 1000 | CCC(=O)CCCCC[C@H](NC(=O)Cc1c(C)[nH]c2ccc(OC)cc12)c1ncc(-c2cc3ccccc3nc2OC)o1 [Compound 1, (S)-2-(5-methoxy-2-methyl-1H-indol-3-yl)-N-(1-(5-(2-methoxyquinolin-3-yl)oxazol-2-yl)-7-oxononyl)acetamide]
2 | > 1000 | < 100 | > 1000 | CCC(=O)CCCCC[C@H](NC(=O)C1CCN(C)CC1)c1ncc(-c2ccccc2)o1 [Compound 3, (S)-1-methyl-N-(7-oxo-1-(5-phenyloxazol-2-yl)nonyl)piperidine-4-carboxamide]
3 | > 1000 | < 100 | > 1000 | CCC(=O)CCCCC[C@H](NC(=O)Cc1c(C)[nH]c2ccc(OC)cc12)c1ncc(-c2ccccc2)o1 [Compound 4, (S)-2-(5-methoxy-2-methyl-1H-indol-3-yl)-N-(7-oxo-1-(5-phenyloxazol-2-yl)nonyl)acetamide]
4 | > 1000 | < 100 | > 1000 | CCC(=O)CCCCC[C@H](NC(=O)C1CCN(C)CC1)c1ncc(-c2cccc3c2OCCO3)o1 [Compound 5]
5 | > 1000 | < 100 | > 1000 | CCC(=O)CCCCC[C@H](NC(=O)c1cncs1)c1ncc(-c2ccccc2)o1 [Compound 6, (S)-N-(7-oxo-1-(5-phenyloxazol-2-yl)nonyl)thiazole-5-carboxamide]
6 | > 1000 | < 100 | > 1000 | CCC(=O)CCCCC[C@H](NC(=O)CCN(C)C)c1ncc(-c2ccccc2)o1 [Compound 7, (S)-3-(dimethylamino)-N-(7-oxo-1-(5-phenyloxazol-2-yl)nonyl)propanamide]
7 | > 1000 | < 100 | > 1000 | CCC(=O)CCCCC[C@H](NC(=O)C1CCN(C)C1)c1ncc(-c2ccccc2)o1 (stereo partly drawn) [Compound 8, 1-methyl-N-((S)-7-oxo-1-(5-phenyloxazol-2-yl)nonyl)pyrrolidine-3-carboxamide]
8 | > 1000 | < 100 | > 1000 | CCC(=O)CCCCC[C@H](NC(=O)C(C)(C)N(C)C)c1ncc(-c2ccccc2)o1 [Compound 9, (S)-2-(dimethylamino)-2-methyl-N-(7-oxo-1-(5-phenyloxazol-2-yl)nonyl)propanamide]
9 | > 1000 | < 100 | > 1000 | CCC(=O)CCCCC[C@H](NC(=O)[C@@H]1CSC(=O)N1)c1ncc(-c2ccccc2)o1 [Compound 13, (R)-2-oxo-N-((S)-7-oxo-1-(5-phenyloxazol-2-yl)nonyl)thiazolidine-4-carboxamide]
10 | > 1000 | 100 to 1000 | > 1000 | CCC(=O)CCCCC[C@H](NC(=O)c1ccnc(Cl)c1)c1ncc(-c2ccccc2)o1 [Compound 14, (S)-2-chloro-N-(7-oxo-1-(5-phenyloxazol-2-yl)nonyl)isonicotinamide]
11 | > 1000 | 100 to 1000 | > 1000 | CCC(=O)CCCCC[C@H](NC(=O)CN1CCN(C)CC1)c1ncc(-c2ccccc2)o1 [Compound 15, (S)-2-(4-methylpiperazin-1-yl)-N-(7-oxo-1-(5-phenyloxazol-2-yl)nonyl)acetamide]
12 | > 1000 | 100 to 1000 | > 1000 | CCC(=O)CCCCC[C@H](NC(=O)Cn1c(C)nc2ccccc21)c1ncc(-c2ccccc2)o1 [Compound 18, (S)-2-(2-methyl-1H-benzo[d]imidazol-1-yl)-N-(7-oxo-1-(5-phenyloxazol-2-yl)nonyl)acetamide]
13 | > 1000 | 100 to 1000 | > 1000 | CCC(=O)CCCCC[C@H](NC(=O)C1CCCCCN1C)c1ncc(-c2ccccc2)o1 (stereo partly drawn) [Compound 21, 1-methyl-N-((S)-7-oxo-1-(5-phenyloxazol-2-yl)nonyl)azepane-2-carboxamide]
14 | > 1000 | 100 to 1000 | > 1000 | CCC(=O)CCCCC[C@H](NC(=O)CCC1CCCN(C)C1)c1ncc(-c2ccccc2)o1 (stereo partly drawn) [Compound 25, 3-(1-methylpiperidin-3-yl)-N-((S)-7-oxo-1-(5-phenyloxazol-2-yl)nonyl)propanamide]
15 | > 1000 | 100 to 1000 | > 1000 | CCC(=O)CCCCC[C@H](NC(=O)CCn1c(CC)nc2ccccc21)c1ncc(-c2ccccc2)o1 [Compound 26, (S)-3-(2-ethyl-1H-benzo[d]imidazol-1-yl)-N-(7-oxo-1-(5-phenyloxazol-2-yl)nonyl)propanamide]
16 | 100 to 1000 | < 100 | < 100 | CCC(=O)CCCCC[C@H](NC(=O)CCn1c(CC)nc2ccccc21)c1ncc(-c2cc3ccccc3nc2OC)o1 [Compound 29, (S)-3-(2-ethyl-1H-benzo[d]imidazol-1-yl)-N-(1-(5-(2-methoxyquinolin-3-yl)oxazol-2-yl)-7-oxononyl)propanamide]
17 | > 1000 | < 100 | > 1000 | CCC(=O)CCCCC[C@H](NC(=O)C1CN(C)C1)c1ncc(-c2ccccc2)o1 [Compound 32, (S)-1-methyl-N-(7-oxo-1-(5-phenyloxazol-2-yl)nonyl)azetidine-3-carboxamide]
18 | 100 to 1000 | < 100 | 100 to 1000 | CCC(=O)CCCCC[C@H](NC(=O)C1CCN(C)C1)c1ncc(-c2cc3ccccc3nc2OC)o1 (stereo partly drawn) [Compound 34, N-((S)-1-(5-(2-methoxyquinolin-3-yl)oxazol-2-yl)-7-oxononyl)-1-methylpyrrolidine-3-carboxamide]
19 | > 1000 | 100 to 1000 | 100 to 1000 | CCC(=O)CCCCC[C@H](NC(=O)C(=O)N(C)C)c1ncc(-c2cc3ccccc3nc2OC)o1 [Compound 36, (S)-N1-(1-(5-(2-methoxyquinolin-3-yl)oxazol-2-yl)-7-oxononyl)-N2,N2-dimethyloxalamide]
20 | 100 to 1000 | < 100 | < 100 | CCC(=O)CCCCC[C@H](NC(=O)CCN(C)C)c1ncc(-c2cc3ccccc3nc2OC)o1 [Compound 38, (S)-3-(dimethylamino)-N-(1-(5-(2-methoxyquinolin-3-yl)oxazol-2-yl)-7-oxononyl)propanamide]
21 | > 1000 | – | 100 to 1000 | CCC(=O)CCCCC[C@H](NC(=O)c1cncs1)c1nnc(-c2cc3ccccc3nc2OC)o1 [Compound 49, (S)-N-(1-(5-(2-methoxyquinolin-3-yl)-1,3,4-oxadiazol-2-yl)-7-oxononyl)thiazole-5-carboxamide]

Row | Compound | EC50 [1] [nM] | IC50 (HDAC1) [nM] | IC50 (HDAC in Hela cells) [nM]
22 | CCC(=O)CCCCC[C@H](NC(=O)C(C)(C)N(C)C)c1ncc(-c2cc3ccccc3nc2OC)o1 [Compound 35, (S)-2-(dimethylamino)-N-(1-(5-(2-methoxyquinolin-3-yl)oxazol-2-yl)-7-oxononyl)-2-methylpropanamide] | 100 to 1000 | < 100 | < 100
